The first data set concerns the target [3H]PROG 16α-hydroxylating activity by male rat liver microsomes (CYP2C11) (Rattus norvegicus, UniProt P08683). The data set can be described thus: Inhibition of [3H]progesterone 16α-hydroxylation by adult male rat liver microsomes.
Conditions: not given
The protocol:
Approximately 95-day-old male Wistar rats, castrated on the 70th day after birth, were used. The liver microsomes were prepared as previously described. The experiments were performed according to instrumental guidelines for the care and use of laboratory animals.
The metabolism by rat liver microsomes were examined, according to our previously described procedure. Briefly, the microsomal suspension (400–600 μg of protein/2.2 mL, total volume of the reaction mixture) was preincubated with [3H]PROG (20 nM) under the absence or presence of an unlabeled steroid (0.01–10 μM) at 36°C for 30 min. […] After the incubation, two identical samples were mixed and extracted with toluene. The toluene-extractable [3H]PROG metabolites (more than 90%) were isolated by various paper chromatographic systems and then identified by recrysallization method. Other miscellaneous procedures are described in our previous papers.
(In general: Liver microsomes are a subcellular fraction often used to study metabolism.)
Chain of [3H]PROG 16α-hydroxylating activity by male rat liver microsomes (CYP2C11) (P08683 whole entry): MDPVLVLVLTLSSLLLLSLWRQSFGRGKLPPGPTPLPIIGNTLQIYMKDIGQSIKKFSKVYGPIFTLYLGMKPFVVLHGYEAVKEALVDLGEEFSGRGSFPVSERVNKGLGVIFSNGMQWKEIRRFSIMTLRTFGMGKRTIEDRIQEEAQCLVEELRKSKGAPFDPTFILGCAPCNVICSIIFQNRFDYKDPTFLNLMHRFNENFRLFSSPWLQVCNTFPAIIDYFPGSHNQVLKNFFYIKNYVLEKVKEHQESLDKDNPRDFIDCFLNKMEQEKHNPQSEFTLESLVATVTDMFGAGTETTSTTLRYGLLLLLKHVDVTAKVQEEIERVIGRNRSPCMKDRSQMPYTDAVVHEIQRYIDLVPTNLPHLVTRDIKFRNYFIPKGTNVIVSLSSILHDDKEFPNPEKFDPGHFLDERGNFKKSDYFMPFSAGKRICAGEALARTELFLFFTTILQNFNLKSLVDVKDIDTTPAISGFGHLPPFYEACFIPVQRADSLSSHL
Regarding `CC(=O)[C@H]1[C@H](O)C[C@H]2[C@@H]3CC[C@H]4C[C@@H](O)CC[C@]4(C)[C@H]3CC[C@@]21C` [compound 36, 3β,16α-Dihydroxy-5α-pregnan-20-one], the “[3H]PROG16α-hydroxylation (IC40)” value was 1150 nM.

The same data set, now with this note: 40% inhibition not reached at 10 μM of unlabeled steroid; male rat liver microsomes.
In the case of 3β-Pregnan-3-one [compound 37], the “[3H]PROG16α-hydroxylation (IC40), given as bound in μM” value was more than 10 µM. Same read-out and setting: with `CC(=O)[C@H]1CC[C@H]2[C@@H]3C[C@@H](O)C4=CC(=O)CC[C@]4(C)[C@H]3CC[C@]12C` [compound 3, 6β-Hydroxyprogesterone] the figure was more than 10 μM^c; with `CC(=O)[C@H]1CC[C@H]2[C@@H]3CCC4=CC(=O)CC[C@]4(C)[C@H]3[C@H](O)C[C@]12C` [compound 5, 11α-Hydroxyprogesterone], more than 10 µM. On the same count and under the same terms, with `CC(=O)O[C@@H]1C[C@]2(C)[C@@H](C(C)=O)CC[C@H]2[C@@H]2CCC3=CC(=O)CC[C@]3(C)[C@H]21` [compound 6, 11α-Acetoxyprogesterone] the figure was more than 10 µM. The same measure, in the same setting: then `CC(=O)[C@H]1CC[C@H]2[C@@H]3CCC4=CC(=O)CC[C@]4(C)[C@H]3[C@@H](O)C[C@]12C` [compound 7, 11β-Hydroxyprogesterone], with more than 10 µM; and `CC(=O)[C@H]1[C@H](O)C[C@H]2[C@@H]3CCC4=CC(=O)CC[C@]4(C)[C@H]3CC[C@@]21C` [compound 8, 16α-Hydroxyprogesterone], with more than 10 µM. As to `CC(=O)[C@H]1[C@H](C)C[C@H]2[C@@H]3CCC4=CC(=O)CC[C@]4(C)[C@H]3CC[C@@]21C` [compound 9, 16α-Methylprogesterone], the “[3H]PROG16α-hydroxylation (IC40), given as bound in μM” value is given as more than 10 μM ^d. Still for that read-out and setting: with `CC(=O)[C@H]1CC[C@H]2[C@@H]3CCC4=CC(=O)CC[C@]4(C)[C@H]3CC[C@]12CO` [compound 10, 18-Hydroxyprogesterone] the figure was more than 10 µM.

On to `CC(=O)[C@H]1CC[C@H]2[C@@H]3CCC4=CC(=O)CC[C@]4(CO)[C@H]3CC[C@]12C` [compound 11, 19-Hydroxyprogesterone], for which the “[3H]PROG16α-hydroxylation (IC40), given as bound in μM” value is more than 10 µM.

Consider `CC(=O)[C@H]1CC[C@H]2[C@@H]3CCC4=CC(=O)CC[C@@H]4[C@H]3CC[C@]12C` [compound 12, 19-Norprogesterone], for which the “[3H]PROG16α-hydroxylation (IC40), given as bound in μM” value was more than 10 µM. Same read-out and setting: with `C[C@H](O)[C@H]1CC[C@H]2[C@@H]3CCC4=CC(=O)CC[C@]4(C)[C@H]3CC[C@]12C` [compound 13, 20α-Hydroxyprogesterone] the figure was more than 10 µM; with `C[C@]12CC[C@H]3[C@@H](CCC4=CC(=O)CC[C@@]43C)[C@@H]1CC[C@@H]2C(=O)CO` [compound 14, 21-Hydroxyprogesterone], more than 10 µM; with `CC(=O)OCC(=O)C1CCC2C3CCC4=CC(=O)CCC4(C)C3CCC12C` (stereo not shown) [compound 15, 21-Acetoxyprogesterone], more than 10 µM.

As to `C[C@]12C[C@H](O)[C@H]3[C@@H](CCC4=CC(=O)CC[C@@]43C)[C@@H]1CC[C@@H]2C(=O)CO` [compound 16, Corticosterone], the “[3H]PROG16α-hydroxylation (IC40), given as bound in μM” value is more than 10 µM. As for `C[C@H](O)[C@H]1CC[C@H]2[C@@H]3CC=C4C[C@@H](O)CC[C@]4(C)[C@H]3CC[C@]12C` [compound 21, 20α-Hydroxypregnenolone], the “[3H]PROG16α-hydroxylation (IC40), given as bound in μM” value was more than 10 µM.

As to `C[C@]12CC[C@H]3[C@@H](CC=C4C[C@@H](O)CC[C@@]43C)[C@@H]1CC[C@@H]2C(=O)COS(=O)(=O)O` [compound 24, 21-Sulfatepregnenolone], the “[3H]PROG16α-hydroxylation (IC40), given as bound in μM” value was more than 10 µM.

In the case of `CC[C@H]1CC[C@H]2[C@@H]3CC=C4C[C@@H](O)CC[C@]4(C)[C@H]3CC[C@]12C` [compound 25, 5-Pregnen-3β-ol], the “[3H]PROG16α-hydroxylation (IC40), given as bound in μM” value is more than 10 µM. On the same count and under the same terms, with `CC(C)CCC[C@@H](C)[C@H]1CC[C@H]2[C@@H]3CC=C4C[C@@H](O)CC[C@]4(C)[C@H]3CC[C@]12C` [compound 26, Cholesterol] the figure was more than 10 µM; with `CC(=O)[C@H]1CC[C@H]2[C@@H]3CC[C@H]4C[C@H](OS(=O)(=O)O)CC[C@]4(C)[C@H]3CC[C@]12C` [compound 31, 3α-Sulfate-5 α -pregnan-20-one], more than 10 µM. The same measure, in the same setting: then `C[C@]12CC[C@H]3[C@@H](CCC4=CC(=O)CC[C@@]43C)[C@@H]1CC[C@@H]2C(=O)O` [compound 39, 4-Androsten-3-one; 17-β-carboxylaic acid], with more than 10 μM^e. On the same count and under the same terms, then `CC(=O)O[C@H]1CC[C@H]2[C@@H]3CCC4=CC(=O)CC[C@]4(C)[C@H]3CC[C@]12C` [compound 42, 17β-Acetoxytestosterone], with more than 10 µM.

The same data set, now with this note: IC40 of progesterone 1 relative to IC40 of 33.
For `CC(=O)[C@H]1CC[C@H]2[C@@H]3CC[C@@H]4C[C@H](O)CC[C@]4(C)[C@H]3CC[C@]12C` [compound 33, 3α-Hydroxy-5 β -pregnan-20-one], the “observed inhibitory potency index against [3H]PROG 16α-hydroxylation” value turned out to be 31.46.

Still in this data set, the particulars now being: molar concentration of unlabeled steroid causing 40% inhibition; [3H]PROG 20 nM; unlabeled steroid 0.01–10 μM; male rat liver microsomes.
For the compound `CC(=O)[C@H]1CC[C@H]2[C@@H]3CCC4=CC(=O)CC[C@]4(C)[C@H]3CC[C@]12C` [compound 1, Progesterone], the “[3H]PROG16α-hydroxylation (IC40)” value amounted to 755 nM. The same measure, in the same setting: then `CC(=O)[C@H]1CC[C@H]2[C@@H]3CCC4=C[C@@H](O)CC[C@]4(C)[C@H]3CC[C@]12C` [compound 2, 3β-Hydroxyprogesterone], with 255 nM; and `CC(=O)O[C@@H]1C[C@H]2[C@@H]3CC[C@H](C(C)=O)[C@@]3(C)CC[C@@H]2[C@@]2(C)CCC(=O)C=C12` [compound 4, 6β-Acetoxyprogesterone], with 740 nM.

As for `CC(=O)[C@H]1CC[C@H]2[C@@H]3CC=C4C[C@@H](O)CC[C@]4(C)[C@H]3CC[C@]12C` [compound 17, Pregnenolone], the “[3H]PROG16α-hydroxylation (IC40)” value came out at 142 nM. On the same count and under the same terms, then `CC(=O)O[C@H]1CC[C@@]2(C)C(=CC[C@H]3[C@@H]4CC[C@H](C(C)=O)[C@@]4(C)CC[C@@H]32)C1` [compound 18, Pregnenolone-3-acetate], with 800 nM; and `CC(=O)C1CCC2C3CC=C4CC(OS(=O)(=O)O)CCC4(C)C3CCC12C` (stereo not shown) [compound 19, Pregnenolone-3-sulfate], with 195 nM; and `C[C@]12CC[C@H]3[C@@H](CC=C4C[C@@H](O)CC[C@@]43C)[C@@H]1CC[C@@H]2C(=O)CO` [compound 22, 21-Hydroxypregnenolone], with 462 nM.

For `CC(=O)OCC(=O)[C@H]1CC[C@H]2[C@@H]3CC=C4C[C@@H](O)CC[C@]4(C)[C@H]3CC[C@]12C` [compound 23, 21-Acetoxypregnenolone], the “[3H]PROG16α-hydroxylation (IC40)” value was 600 nM. Still for that read-out and setting: then `CC(=O)[C@H]1CC[C@H]2[C@@H]3CC[C@H]4CC(=O)CC[C@]4(C)[C@H]3CC[C@]12C` [compound 27, 5α-Pregnan-3,20-dione], with 720 nM. With `CC(=O)[C@H]1CC[C@H]2[C@@H]3CC[C@@H]4CC(=O)CC[C@]4(C)[C@H]3CC[C@]12C` [compound 28, 5β-Pregnan-3,20-dione], the “[3H]PROG16α-hydroxylation (IC40)” value came out at 395 nM.

Turning to `CC(=O)[C@H]1CC[C@H]2[C@@H]3CC[C@H]4C[C@H](O)CC[C@]4(C)[C@H]3CC[C@]12C` [compound 29, 3α-Hydroxy-5 α -pregnan-20-one], the “[3H]PROG16α-hydroxylation (IC40)” value amounted to 62 nM.

On to `CC(=O)O[C@@H]1CC[C@@]2(C)[C@@H](CC[C@@H]3[C@@H]2CC[C@]2(C)[C@@H](C(C)=O)CC[C@@H]32)C1` [compound 30, 3α-Acetoxy-5 α -pregnan-20-one], for which the “[3H]PROG16α-hydroxylation (IC40)” value came to 410 nM.

As for `CC(=O)[C@H]1CC[C@H]2[C@@H]3CC[C@H]4C[C@@H](O)CC[C@]4(C)[C@H]3CC[C@]12C` [compound 32, 3β-Hydroxy-5 α -pregnan-20-one], the “[3H]PROG16α-hydroxylation (IC40)” value amounted to 225 nM. On to `CC(=O)[C@H]1CC[C@H]2[C@@H]3CC[C@@H]4C[C@H](O)CC[C@]4(C)[C@H]3CC[C@]12C` [compound 33, 3α-Hydroxy-5 β -pregnan-20-one], for which the “[3H]PROG16α-hydroxylation (IC40)” value is 24 nM. Still for that read-out and setting: then `CC(=O)[C@H]1CC[C@H]2[C@@H]3CC[C@@H]4C[C@@H](O)CC[C@]4(C)[C@H]3CC[C@]12C` [compound 34, 3β-Hydroxy-5 β -pregnan-20-one], with 170 nM; and `CC(=O)[C@H]1CC[C@H]2[C@@H]3CC[C@H]4C[C@H](O)CC[C@]4(C)[C@H]3[C@@H](O)C[C@]12C` [compound 35, 3α,11β-Dihydroxy-5α-pregnan-20-one], with 150 nM.

For `C[C@]12CCC(=O)C=C1CC[C@@H]1[C@@H]2CC[C@]2(C)C(=O)CC[C@@H]12` [compound 38, 4-Androsten-3,17-dione], the “[3H]PROG16α-hydroxylation (IC40)” value amounted to 1000 nM. Same read-out and setting: with `COC(=O)[C@H]1CC[C@H]2[C@@H]3CCC4=CC(=O)CC[C@]4(C)[C@H]3CC[C@]12C` [compound 40, 4-Androsten-3-one;17-β-carboxylaic acid methyl ester] the figure was 801 nM; with `C[C@]12CC[C@H]3[C@@H](CCC4=CC(=O)CC[C@@]43C)[C@@H]1CC[C@@H]2O` [compound 41, Testosterone], 1450 nM.

For `C[C@]12CC[C@H](O)CC1=CC[C@@H]1[C@@H]2CC[C@]2(C)C(=O)CC[C@@H]12` [compound 43, Dehydroepiandrosterone], the “[3H]PROG16α-hydroxylation (IC40)” value is 680 nM.

These data come from publication PMC4970648, “Studies on 16α-Hydroxylation of Steroid Molecules and Regioselective Binding Mode in Homology-Modeled Cytochrome P450-2C11” (International Journal of Medicinal Chemistry, 2010).
